According to patent publication US20050261298A1, “Methods of treating conditions associated with an Edg-7 receptor” (priority 2002, published 2005):

Assays:
[1] = target: Edg-4 (Homo sapiens, UniProt Q9HBW0); test: Calcium mobilization assay (FLIPR), inhibition of LPA-stimulated calcium increase; type: cell-based; conditions: HTC cells expressing Edg-4
[2] = target: T1, Histamine H1, Central (Cavia porcellus, UniProt P31389); test: Radioligand binding assay, 3H Pyrilamine; parameters: species or system Guinea pig; conditions: significance criteria ≧50% of max stimulation or inhibition
T1 construct: Source: Guinea pig cerebellum; from tissue; host or cells: guinea pig cerebellum
T1 sequence (P31389 whole entry): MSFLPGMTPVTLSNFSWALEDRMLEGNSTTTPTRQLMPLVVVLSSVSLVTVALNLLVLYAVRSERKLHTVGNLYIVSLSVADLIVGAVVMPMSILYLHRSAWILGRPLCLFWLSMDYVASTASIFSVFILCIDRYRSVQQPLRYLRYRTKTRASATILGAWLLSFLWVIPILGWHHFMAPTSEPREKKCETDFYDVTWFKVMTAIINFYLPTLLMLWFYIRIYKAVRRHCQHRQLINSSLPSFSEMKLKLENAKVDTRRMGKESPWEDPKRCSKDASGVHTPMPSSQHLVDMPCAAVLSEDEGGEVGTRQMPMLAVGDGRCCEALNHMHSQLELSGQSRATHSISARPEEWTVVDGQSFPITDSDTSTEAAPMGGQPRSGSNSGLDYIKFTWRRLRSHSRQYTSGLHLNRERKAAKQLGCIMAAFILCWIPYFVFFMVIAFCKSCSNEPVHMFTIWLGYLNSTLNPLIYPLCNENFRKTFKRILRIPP
Protocol: (§1) In order to test the selectivity of compounds, various enzyme assays as well as radioligand binding assays were performed using numerous non-Edg receptor targets as listed below.
(§2) A radioligand binding assay was performed using adrenergic α1 according to the method of Greengrass and Bremner 1979, Eur. J. Pharmacol. 55:323-326. A radioligand binding assay was performed using adrenergic α2 according to the method of Boyajian and Leslie, 1987, J. Pharmacol. Exp. Ther. 241:1092-1098. A radioligand binding assay was performed using adrenergic β according to the method of Feve et al., 1994, Proc. Natl. Acad. Sci. USA 91:5677-5681. A radioligand binding assay was performed using angiotensin AT2 according to the method of Whitebread et al., 1991, Biochem. Biophys. Res. Comm. 181:1365-1371. A radioligand binding assay was performed using calcium channel Type L, dihydropyridine according to the method of Ehlert et al., 1982, Life Sci. 30:2191-2202. A radioligand binding assay was performed using dopamine D2L according to the method of Bunzo et al., 1988, Nature 336:783-787. A radioligand binding assay was performed using endothelin ETA according to the method of Mihara et al., 1994, J. Pharmacol. Exp Ther. 268:1122-1127. A radioligand binding assay was performed using histamine H1 Central according to the method of Hill et al., 1978, J. Neurochem. 31:997-1004. […]

[3] = target: T2, Edg-6 (Homo sapiens, UniProt O95977); test: Calcium mobilization assay (FLIPR), inhibition of S1P-stimulated calcium increase; type: cell-based; conditions: HTC cells expressing Edg-6
T2 construct: expressed in transfected cells; host or cells: HTC rat hepatoma cells
T2 sequence (O95977 1-384): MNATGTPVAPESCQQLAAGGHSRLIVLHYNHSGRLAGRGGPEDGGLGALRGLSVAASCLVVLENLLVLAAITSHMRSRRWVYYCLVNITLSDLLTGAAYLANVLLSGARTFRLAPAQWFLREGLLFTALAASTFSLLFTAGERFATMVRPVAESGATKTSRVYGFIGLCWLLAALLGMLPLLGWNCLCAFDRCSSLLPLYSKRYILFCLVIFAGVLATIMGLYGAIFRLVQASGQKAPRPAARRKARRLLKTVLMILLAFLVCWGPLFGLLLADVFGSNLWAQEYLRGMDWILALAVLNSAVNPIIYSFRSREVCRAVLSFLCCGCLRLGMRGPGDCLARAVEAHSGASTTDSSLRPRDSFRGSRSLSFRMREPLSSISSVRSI

[4] = target: T3, Endothelin ETA (Homo sapiens, UniProt P25101); test: Radioligand binding assay, 125I Endothelin; conditions: significance criteria ≧50% of max stimulation or inhibition
T3 construct: expressed in transfected cells; host or cells: CHO cells
T3 sequence (P25101 21-427): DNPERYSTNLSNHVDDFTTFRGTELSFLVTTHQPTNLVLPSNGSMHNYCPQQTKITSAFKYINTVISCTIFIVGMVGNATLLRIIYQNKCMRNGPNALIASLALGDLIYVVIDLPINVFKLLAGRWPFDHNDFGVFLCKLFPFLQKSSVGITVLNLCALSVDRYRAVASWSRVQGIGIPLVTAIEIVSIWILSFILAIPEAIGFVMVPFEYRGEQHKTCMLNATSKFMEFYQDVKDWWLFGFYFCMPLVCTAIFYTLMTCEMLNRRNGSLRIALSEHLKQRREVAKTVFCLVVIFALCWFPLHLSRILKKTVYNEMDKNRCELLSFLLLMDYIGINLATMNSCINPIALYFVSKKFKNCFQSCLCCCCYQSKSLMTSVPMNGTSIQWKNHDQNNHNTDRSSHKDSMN
Protocol: as §1, §2

[5] = target: T4, Edg-2 (Homo sapiens, UniProt Q92633); test: Calcium mobilization assay (FLIPR), inhibition of LPA-stimulated calcium increase; type: cell-based; conditions: HTC cells expressing Edg-2
T4 construct: expressed in transfected cells; host or cells: HTC rat hepatoma cells
T4 sequence (Q92633 whole entry): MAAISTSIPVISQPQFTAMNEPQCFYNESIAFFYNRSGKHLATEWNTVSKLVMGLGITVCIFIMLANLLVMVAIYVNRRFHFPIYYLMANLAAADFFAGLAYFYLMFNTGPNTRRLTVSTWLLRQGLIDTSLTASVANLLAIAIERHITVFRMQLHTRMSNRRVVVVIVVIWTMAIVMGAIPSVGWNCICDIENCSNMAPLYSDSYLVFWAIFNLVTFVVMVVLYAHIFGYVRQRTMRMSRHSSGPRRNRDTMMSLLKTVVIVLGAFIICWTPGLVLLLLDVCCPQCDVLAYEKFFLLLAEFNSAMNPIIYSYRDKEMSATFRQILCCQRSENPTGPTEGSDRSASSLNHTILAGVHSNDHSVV

[6] = system: Adrenergic β; test: Radioligand binding assay, 3H Dihydroaplenolol; parameters: species or system Wistar rat; conditions: significance criteria ≧50% of max stimulation or inhibition
Protocol: as §1, §2

[7] = target: T5, Edg-5 (Homo sapiens, UniProt O95136); test: Calcium mobilization assay (FLIPR), inhibition of S1P-stimulated calcium increase; type: cell-based; conditions: HTC cells expressing Edg-5
T5 construct: expressed in transfected cells; host or cells: HTC rat hepatoma cells
T5 sequence (O95136 whole entry): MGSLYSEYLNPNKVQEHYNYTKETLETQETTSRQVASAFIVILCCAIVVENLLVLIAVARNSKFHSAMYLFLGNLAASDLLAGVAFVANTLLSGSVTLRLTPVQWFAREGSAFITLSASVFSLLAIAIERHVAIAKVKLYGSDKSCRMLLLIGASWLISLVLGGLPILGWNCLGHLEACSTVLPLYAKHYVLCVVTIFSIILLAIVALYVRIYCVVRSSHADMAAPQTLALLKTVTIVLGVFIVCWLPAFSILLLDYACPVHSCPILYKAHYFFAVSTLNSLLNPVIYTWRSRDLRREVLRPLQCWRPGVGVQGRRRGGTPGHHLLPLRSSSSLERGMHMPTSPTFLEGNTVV

[8] = target: T6, Edg-8 (Homo sapiens, UniProt Q9H228); test: as above; type: cell-based; conditions: HTC cells expressing Edg-8
T6 construct: expressed in transfected cells; host or cells: HTC rat hepatoma cells
T6 sequence (Q9H228 whole entry): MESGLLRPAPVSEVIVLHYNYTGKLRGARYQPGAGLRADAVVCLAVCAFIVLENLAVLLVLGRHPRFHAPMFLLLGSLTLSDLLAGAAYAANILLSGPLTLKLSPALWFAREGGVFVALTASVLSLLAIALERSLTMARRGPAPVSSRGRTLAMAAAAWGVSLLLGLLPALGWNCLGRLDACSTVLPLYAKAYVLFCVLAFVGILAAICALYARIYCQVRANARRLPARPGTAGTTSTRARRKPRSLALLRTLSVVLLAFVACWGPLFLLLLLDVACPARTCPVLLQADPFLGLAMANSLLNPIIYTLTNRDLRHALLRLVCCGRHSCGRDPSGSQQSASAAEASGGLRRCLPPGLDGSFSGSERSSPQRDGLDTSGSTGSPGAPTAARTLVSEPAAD

[9] = concentrations as high as 20 µM

Chain of Edg-4 (Q9HBW0 1-344 limits assumed): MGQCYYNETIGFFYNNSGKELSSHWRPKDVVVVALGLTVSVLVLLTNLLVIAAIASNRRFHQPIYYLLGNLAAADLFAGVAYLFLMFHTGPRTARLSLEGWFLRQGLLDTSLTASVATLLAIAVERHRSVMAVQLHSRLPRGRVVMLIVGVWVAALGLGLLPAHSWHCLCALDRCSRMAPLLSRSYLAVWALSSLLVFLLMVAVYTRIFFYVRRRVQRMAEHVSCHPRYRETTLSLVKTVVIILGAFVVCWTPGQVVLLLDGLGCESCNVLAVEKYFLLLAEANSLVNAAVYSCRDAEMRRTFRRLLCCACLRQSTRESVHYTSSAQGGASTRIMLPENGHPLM

CCOC(=O)c1c(NC(=O)NS(=O)(=O)c2ccccc2Cl)sc2c1CCCC2 [Compound 101]
no significant activity: activity in radioligand binding assay, H1 central [2] | activity in radioligand binding assay, Endothelin ETA [4] | activity in radioligand binding assay, Adrenergic Beta, non-selective [6]
> 20 µM: IC50 [1] | IC50 [3] | IC50 [5] | IC50 [7] | IC50 [8]
did not inhibit: inhibition of LPA-stimulated calcium increases, Edg-4 [1, 9] | inhibition of S1P-stimulated calcium increases, Edg-6 [3, 9] | inhibition of LPA-stimulated calcium increases, Edg-2 [5, 9] | inhibition of S1P-stimulated calcium increases, Edg-5 [7, 9] | inhibition of S1P-stimulated calcium increases, Edg-8 [8, 9]
222 to 225 °C: melting point
